Patent publication EP3070175A1, “TEST FOR DETERMINING SUSCEPTIBILITY OR RESISTANCE TO POLYMYXINS IN ENTEROBACTERIACEAE” (Université de Fribourg, priority 2015, dated 2016)

Test system: enterobacterial strains
Test: Polymyxin test: colorimetric detection of growth with polymyxin B as selective antibiotic
Type: cell-based, Enterobacteriaceae
Details: polymyxin B instead of colistin as selective antibiotic; all tested strains
Procedure: Each inoculum was prepared by mixing 1 öse (10 µl) of a fresh culture of the tested bacteria in 5 ml of sterile NaCl 0.85% (at a density of 3 Mac Farland, i.e. about 10^9 CFU/ml).
250 ml of reactive medium was prepared by mixing the compounds hereafter: • a broth powder of a non selective growth medium for bacteria, the Cation-Adjusted Mueller-Hinton broth (MHB-CA) : 6.25 g • a colour indicator, the phenol red : 0.0125 g • sterile distilled water 225 ml • sterile D (+)-glucose (10 %) anhydrous (sterilization by filtration) : 25 ml
The pH of the final reactive medium was adjusted to 6.6 and 6.7 with HCl 1M.
Colistin or polymyxin B was added or not at the concentration of 5 mg/L in the reactive medium. Standard colistin sulphate and polymyxin B were from Sigma Aldrich (Saint-Louis, France). Those antibiotic molecule powders were kept at 4°C before their use, whereas polymyxin dilutions were kept at -20°C.
For each strain, two wells of a plastic sterile plate with 96 shaped wells were inoculated in parallel with and without polymyxin (colistin sulphate or polymyxin B) in order to compare their colour change.
Plastic sterile plates were from Sarstedt (Nümbrecht, Germany). The tray may be prepared as follows : • 1. […]
The results of the tests were recorded at 10 min (checking for no spontaneous colour change in the well) and then every hour for a maximum of 4 hours by visual inspection. […]

polymyxin B
Results of the method of the invention compared with colistin: Identical results
